Test results from PMC9697826 (Pharmaceuticals, 2022).

Key:
[1] = target: T1, FABP4 (Homo sapiens, UniProt P15090); assay: FABP4 Inhibitor/Ligand Screening Assay Kit: displacement of a fluorescent detection reagent; assay type: binding; settings: for IC50: displacement of detection reagent from FABP4, compounds diluted in PBS pH 7.4, fluorescence em 470 nm, ex 370 nm; for FABP4 inhibitory activity, IC50 in words: summary statement in conclusions
T1 construct: purchased Cayman Chemical 10010231
Experimental: FABP4 inhibitory activity was assessed by measuring the decrease in fluorescent signal of a detection reagent (DR) when displaced by a strong FABP4 ligand. […] Therefore, any effective ligand of the protein, which binds to the same binding pocket and can displace the DR, determines a reduction in the fluorescence read-out. The new molecular series was screened in a two-step procedure. Firstly, a single concentration of 5 µM was used to gain an estimation of the overall inhibitory effect of all the molecules.
To analyze the inhibitory activity of FABP4 ligands, a displacement assay was utilized as described by the Cayman’s instruction, FABP4 Inhibitor/Ligand Screening Assay Kit, Item 10,010,231 (see Supplementary Materials for additional details). The samples of compounds for activity determination were prepared as a stock solution (1 mM) in DMSO. On the day of activity assay, the compounds were all diluted in phosphate buffer solution (PBS, pH 7.4) to different concentrations (100, 50, 10, 5, 2, 1, and 0 µM). Appropriate concentrations of DMSO in PBS were used as control. The detection reagent (FABP Assay Detection Reagent, Item 10010376) was used as provided by the Cayman’s kit. The diluted Detection Reagent probe was mixed with FABP4 protein present in the kit and incubated for 10 min at room temperature. Compounds were then added and equilibrated for another 10 min. Lastly, the fluorescence signal was recorded at 470 nm (i.e., emission, with the excitation fixed at 370 nm) with a CytoFluor® Series 4000 Fluorescence Multi-Well Plate Reader.

[2] = tested on: colon cancer cells; set-up: method as in PMID 33088219; settings: treatment with the FABP4 inhibitor; cited from earlier work

T1 sequence (P15090 whole entry): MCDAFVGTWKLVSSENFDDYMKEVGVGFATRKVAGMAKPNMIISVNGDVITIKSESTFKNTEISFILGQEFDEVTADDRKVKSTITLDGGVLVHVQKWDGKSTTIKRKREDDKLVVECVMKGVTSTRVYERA

| Compound | IC50 [1] | FABP4 inhibitory activity, IC50 in words [1] | melting point | migration and invasion of colon cancer cells [2] |
| --- | --- | --- | --- | --- |
| Cn1nc(-c2ccccc2)cc(NC(N)=O)c1=O [Compound 25a, (2-Methyl-3-oxo-6-phenyl-2,3-dihydro-pyridazin-4-yl)urea] | 2.97 ± 0.26 µM | low micromolar range | > 300 °C |  |
| CCCn1nc(-c2ccccc2)cc(NC(N)=O)c1=O [Compound 25e, (3-Oxo-6-phenyl-2-propyl-2,3-dihydro-pyridazin-4-yl)urea] | > 50 µM |  | 273 to 275 °C |  |
| CCc1c(-c2ccccc2)c(-c2ccccc2)nn1-c1ccccc1-c1cccc(OCC(=O)O)c1 [BMS309403] |  |  |  | weakened |
| CSc1nnc(-c2ccccc2)cc1N [Compound 27, 3-Methylsulfanyl-6-phenyl-pyridazin-4-ylamine] | > 50 µM |  | 168 to 170 °C |  |
| N#Cc1c(-c2ccccc2)nn(C2CCCCC2)c(=O)c1N [Compound 22, 5-Amino-1-cyclohexyl-6-oxo-3-phenyl-1,6-dihydropyridazine-4-carbonitrile] | 15.2 ± 0.76 µM | low micromolar range | 170 to 172 °C |  |
| Cc1cc(NC(N)=O)c(=O)n(-c2ccccc2)n1 [Compound 55, 1-(6-Methyl-3-oxo-2-phenyl-2,3-dihydropyridazin-4-yl)urea] | > 50 µM |  | 288 to 290 °C |  |
| Cc1cc(N)c(=O)n(-c2ccccc2)n1 [Compound 54] | > 50 µM |  |  |  |
| CCCNC(=O)c1c(-c2ccccc2)n[nH]c(=O)c1N [Compound 4b, 5-Amino-6-oxo-3-phenyl-1,6-dihydropyridazine-4-carboxylic acid propylamide] | 8.27 ± 0.2 µM | low micromolar range | 228 to 230 °C |  |
| CCn1nc(-c2ccccc2)cc(NC(N)=O)c1=O [Compound 25c, (2-Ethyl-3-oxo-6-phenyl-2,3-dihydro-pyridazin-4-yl)urea] | > 50 µM |  | 270 to 271 °C |  |
| CC(=O)N1CCN(C(=O)c2ccc(Nc3cc(-c4ccccc4)nn(C)c3=O)cc2)CC1 [Compound 35, 4-[4-(4-Acetyl-piperazine-1-carbonyl)-phenylamino]-2-methyl-6-phenylpyridazin-3(2H)-one] | > 50 µM |  | 213 to 215 °C |  |
| Cn1nc(-c2ccccc2)cc(Nc2cccc(C#N)c2)c1=O [Compound 30a, 3-(2-Methyl-3-oxo-6-phenyl-2,3-dihydro-pyridazin-4-ylamino)benzonitrile] |  |  | 234 to 235 °C |  |
| Nc1cc(Cc2ccccc2)n[nH]c1=O [Compound 37d, 4-Amino-6-benzylpyridazin-3(2H)-one] |  |  | 247 to 250 °C |  |
| Cn1nc(C2CCCCC2)cc(NC(N)=O)c1=O [Compound 39a, (6-Cyclohexyl-2-methyl-3-oxo-2,3-dihydropyridazin-4-yl)urea] |  |  | 251 to 254 °C |  |
| Cn1nc(-c2ccccc2)cc(Nc2ccccc2C#N)c1=O [Compound 30b, 2-(2-Methyl-3-oxo-6-phenyl-2,3-dihydro-pyridazin-4-ylamino)benzonitrile] | 23.2 ± 0.52 µM | low micromolar range |  |  |
| N#Cc1c(-c2ccccc2)n[nH]c(=O)c1N [Compound 7, 5-Amino-6-oxo-3-phenyl-1,6-dihydropyridazine-4-carbonitrile] |  |  | 287 to 289 °C |  |
| NC(=O)Nc1cc(-c2ccccc2)n[nH]c1=O [Compound 28, (3-Oxo-6-phenyl-2,3-dihydro-pyridazin-4-yl)urea] |  |  | > 300 °C |  |
